What all share (format): in vivo
Assay [1] relates to oat, wild (wild oat, Avena fatua). The assay is described as follows: Test A preemergence, wild oat. The following applies: 0 to 100 scale, 10 days. From the text:
(§1) Seeds of plant species selected from barnyardgrass (Echinochloa crus-galli), blackgrass (Alopecurus myosuroides), corn (Zea mays), foxtail, giant (giant foxtail, Setaria faberi), goosegrass (Eleusine indica), kochia (Bassia scoparia), oat, wild (wild oat, Avena fatua), pigweed, palmer (palmer amaranth, Amaranthus palmeri), pigweed, redroot (redroot pigweed, Amaranthus retroflexus), ragweed (common ragweed, Ambrosia artemisiifolia), ryegrass, Italian (Italian ryegrass, Lolium multiflorum), soybean (Glycine max), and wheat (Triticum aestivum) were planted into a blend of loam soil and sand and treated preemergence with a directed soil spray using test chemicals formulated in a non-phytotoxic solvent mixture which included a surfactant.
(§2) At the same time, plants selected from these crop and weed species and also galium (catchweed bedstraw, Galium aparine) and horseweed (Erigeron canadensis) were planted in pots containing the same blend of loam soil and sand and treated with postemergence applications of test chemicals formulated in the same manner. Plants ranged in height from 2 to 10 cm and were in the one- to two-leaf stage for the postemergence treatment. Treated plants and untreated controls were maintained in a greenhouse for 10 days, after which time all treated plants were compared to untreated controls and visually evaluated for injury. Plant response ratings, summarized in Table A, are based on a 0 to 100 scale where 0 is no effect and 100 is complete control. A dash (-) response means no test result.

In assay [2] the test system is galium (catchweed bedstraw, Galium aparine). Put plainly: Test A postemergence, galium. The following applies: post-emergence, 240 h, 0 to 100 scale, 10 days, read-out: Plant response rating, Galium; for pest or weed control at 31 g/ha: 31 g ai/ha; for pest or weed control at 125 g/ha: 125 g ai/ha.
Description: as §1, §2

The test system of assay [3] is sedge, umbrella (small-flower umbrella sedge, Cyperus difformis). Put plainly: Test B flooded paddy test, umbrella sedge. The following applies: 250 g ai/ha, Flood, scale of 0 to 100 where 0 is no effect and 100 is complete control, visually evaluated after 10 to 14 days, read-out: Plant response rating, Sedge, Umbrella. As for the experimental part: Plant species in the flooded paddy test selected from barnyardgrass (Echinochloa crusgalli), ducksalad (Heteranthera limosa), rice (Oryza sativa), and sedge, umbrella (small-flower umbrella sedge, Cyperus difformis) were grown to the 2-leaf stage for testing. At time of treatment, test pots were flooded to 3 cm above the soil surface, treated by application of test compounds directly to the paddy water, and then maintained at that water depth for the duration of the test. Treated plants and controls were maintained in a greenhouse for 10 to 14 days, after which time all species were compared to controls and visually evaluated. Plant response ratings, summarized in Table B, are based on a scale of 0 to 100 where 0 is no effect and 100 is complete control. A dash (-) response means no test result.

For assay [4], the system named is blackgrass (Alopecurus myosuroides). The assay is described as follows: Test A preemergence, blackgrass. Conditions: 0 to 100 scale, 10 days.
Description: as §1, §2

The next assay deals with kochia (Bassia scoparia). Put plainly: Test A postemergence, kochia. The following applies: post-emergence, 240 h, 0 to 100 scale, 10 days, read-out: Plant response rating, Kochia; for pest or weed control at 31 g/ha: 31 g ai/ha; for pest or weed control at 125 g/ha: 125 g ai/ha.
Description: as §1, §2

Assay [5] has as its system ryegrass, Italian (Italian ryegrass, Lolium multiflorum). The assay is described as follows: Test A postemergence, Italian ryegrass. The following applies: post-emergence, 240 h, 0 to 100 scale, 10 days, read-out: Plant response rating, Ryegrass, Italian; for pest or weed control at 31 g/ha: 31 g ai/ha; for pest or weed control at 125 g/ha: 125 g ai/ha.
Description: as §1, §2

Another assay relates to corn (Zea mays). Put plainly: Test A preemergence, corn. The following applies: 0 to 100 scale, 10 days.
Description: as §1, §2

Experimental findings from US20240158348A1, “HERBICIDAL CYCLIC AMIDES N-SUBSTITUTED WITH A HALOALKYLSULFONYLANILIDE GROUP” (FMC Corporation, priority 2021, published 2024) are described below.

Regarding `Cc1cc(C)c(N2CCC(OC3CC3)C2=O)cc1NS(=O)(=O)C(F)(F)F` (centres unmarked) [Compound 3, N-[5-[3-(cyclopropyloxy)-2-oxo-1-pyrrolidinyl]-2,4-dimethylphenyl]-1,1,1-trifluoromethanesulfonamide], the figures for the “Plant response rating, Oat, Wild” value in assay [1] (31 g ai/ha) and in assay [1] (125 g ai/ha) were 70 and 100, respectively. Also, the pest or weed control at 31 g/ha in assay [2] is 70%; with kochia (Bassia scoparia), 50%; in assay [5], 90%. The pest or weed control at 125 g/ha turned out to be 100% in assay [2], 100% with kochia (Bassia scoparia) and 90% in assay [5]. Besides, in assay [3], the pest or weed control at 250 g/ha was 98%. In addition, the “Plant response rating, Blackgrass” value worked out at 80 in assay [4] (31 g ai/ha) and 100 in assay [4] (125 g ai/ha). The “Plant response rating, Corn” value with corn (Zea mays) (31 g ai/ha) and in the assay with corn (Zea mays) (125 g ai/ha) was 90 throughout.
As for `Cc1cc(C)c(N2CCC(OC3CCCC3)C2=O)cc1NS(=O)(=O)C(F)(F)F` (centres unmarked) [Compound 6, N-[5-[3-(cyclopentyloxy)-2-oxo-1-pyrrolidinyl]-2,4-dimethylphenyl]-1,1,1-trifluoromethanesulfonamide], the “Plant response rating, Oat, Wild” value in assay [1] (31 g ai/ha) came out at 70; in assay [1] (125 g ai/ha) it was 90. In addition, the figures for the pest or weed control at 31 g/ha (in assay [2]; with kochia (Bassia scoparia); in assay [5]) were 80%, 20% and 0%, respectively. Also, the pest or weed control at 125 g/ha is 90% in assay [2], 80% in the assay on kochia (Bassia scoparia) and 50% in assay [5]. The pest or weed control at 250 g/ha in assay [3] was determined as 75%. For the same molecule, the “Plant response rating, Blackgrass” value in assay [4] (31 g ai/ha) amounted to 50; in assay [4] (125 g ai/ha), 90. For the same molecule, the “Plant response rating, Corn” value in the assay on corn (Zea mays) (31 g ai/ha) is on record as 30; with corn (Zea mays) (125 g ai/ha) it was 80.
On to `C#CCOC1CCN(c2cc(NS(=O)(=O)C(F)(F)F)c(C)cc2C)C1=O` (centres unmarked) [Compound 1, N-[2,4-dimethyl-5-[2-oxo-3-(2-propyn-1-yloxy)-1-pyrrolidinyl]phenyl]-1,1,1-trifluoromethanesulfonamide], for which the pest or weed control at 31 g/ha in assay [2] is 80%; in the assay on kochia (Bassia scoparia), 30%; in assay [5], 70%. In addition, the pest or weed control at 125 g/ha is 100% in assay [2], 80% in the assay with kochia (Bassia scoparia) and 70% in assay [5]. Moreover, the pest or weed control at 250 g/ha in assay [3] stood at 90%.
Consider `Cc1cc(C)c(N(COC(=O)C(C)(C)C)S(=O)(=O)C(F)(F)F)cc1N1CCC(OC2CCCC2)C1=O` (centres unmarked) [Compound 5, [[5-[3-(cyclopentyloxy)-2-oxo-1-pyrrolidinyl]-2,4-dimethylphenyl][(trifluoromethyl)sulfonyl]amino]methyl 2,2-dimethylpropanoate], for which the “Plant response rating, Oat, Wild” value in assay [1] (31 g ai/ha) was 0; in assay [1] (125 g ai/ha), 40. For the same molecule, the pest or weed control at 31 g/ha worked out at 60% in assay [2], 20% in the assay with kochia (Bassia scoparia) and 20% in assay [5]. Further, the pest or weed control at 125 g/ha in assay [2] stood at 90%; in the assay with kochia (Bassia scoparia) it was 70%; in assay [5], 40%. In addition, the pest or weed control at 250 g/ha in assay [3] was 85%. Further, the “Plant response rating, Blackgrass” value in assay [4] (31 g ai/ha) amounted to 0; in assay [4] (125 g ai/ha), 40. The “Plant response rating, Corn” value with corn (Zea mays) (31 g ai/ha) worked out at 0; in the assay on corn (Zea mays) (125 g ai/ha) it was 20.
On to `C=CCOC1CCN(c2cc(NS(=O)(=O)C(F)(F)F)c(C)cc2C)C1=O` (centres unmarked) [Compound 2, N-[2,4-dimethyl-5-[2-oxo-3-(2-propen-1-yloxy)-1-pyrrolidinyl]phenyl]-1,1,1-trifluoromethanesulfonamide], for which the pest or weed control at 31 g/ha is 80% in assay [2], 20% in the assay on kochia (Bassia scoparia) and 70% in assay [5]. Also, the results for the pest or weed control at 125 g/ha (in assay [2]; in the assay on kochia (Bassia scoparia); in assay [5]) were 100%, 60% and 70%, respectively. Also, the pest or weed control at 250 g/ha in assay [3] was 85%.
For the molecule `Cc1cc(C)c(N(COC(=O)C(C)(C)C)S(=O)(=O)C(F)(F)F)cc1N1CCC(OC2CC2)C1=O` (centres unmarked) [Compound 7, [[5-[3-(cyclopropyloxy)-2-oxo-1-pyrrolidinyl]-2,4-dimethylphenyl][(trifluoromethyl)sulfonyl]amino]methyl 2,2-dimethylpropanoate], the “Plant response rating, Oat, Wild” value in assay [1] (31 g ai/ha) is recorded as 20; in assay [1] (125 g ai/ha) it was 100. Besides, the pest or weed control at 31 g/ha in assay [2] stood at 90%; with kochia (Bassia scoparia), 70%; in assay [5] it was 50%. Also, the figures for the pest or weed control at 125 g/ha (in assay [2]; in the assay on kochia (Bassia scoparia); in assay [5]) were 100%, 80% and 90%, respectively. The pest or weed control at 250 g/ha in assay [3] was determined as 90%. In addition, the “Plant response rating, Blackgrass” value is listed as 30 in assay [4] (31 g ai/ha) and 80 in assay [4] (125 g ai/ha). Besides, the results for the “Plant response rating, Corn” value in the assay with corn (Zea mays) (31 g ai/ha) and in the assay with corn (Zea mays) (125 g ai/ha) were 0 and 50, respectively.
On to `Cc1cc(C)c(N2CCC(OC3CCC3)C2=O)cc1NS(=O)(=O)C(F)(F)F` (centres unmarked) [Compound 4, N-[5-[3-(cyclobutyloxy)-2-oxo-1-pyrrolidinyl]-2,4-dimethylphenyl]-1,1,1-trifluoromethanesulfonamide], for which the “Plant response rating, Oat, Wild” value in assay [1] (31 g ai/ha) amounted to 80; in assay [1] (125 g ai/ha), 100. The figures for the pest or weed control at 31 g/ha (in assay [2]; in the assay with kochia (Bassia scoparia); in assay [5]) were 100%, 60% and 80%, respectively. The pest or weed control at 125 g/ha in assay [2] is 100%; in the assay with kochia (Bassia scoparia), 90%; in assay [5], 80%. For the same molecule, in assay [3], the pest or weed control at 250 g/ha turned out to be 100%. The results for the “Plant response rating, Blackgrass” value in assay [4] (31 g ai/ha) and in assay [4] (125 g ai/ha) were 20 and 90, respectively. Besides, the “Plant response rating, Corn” value is reported as 40 in the assay on corn (Zea mays) (31 g ai/ha) and 90 in the assay with corn (Zea mays) (125 g ai/ha).
In the case of `Cc1cc(C)c(N(COC(=O)C(C)(C)C)S(=O)(=O)C(F)(F)F)cc1N1CCC(OC2CCC2)C1=O` (centres unmarked) [Compound 8, [[5-[3-(cyclobutyloxy)-2-oxo-1-pyrrolidinyl]-2,4-dimethylphenyl][(trifluoromethyl)sulfonyl]amino]methyl 2,2-dimethylpropanoate], the “Plant response rating, Oat, Wild” value was 0 in assay [1] (31 g ai/ha) and 70 in assay [1] (125 g ai/ha). Also, the values for the pest or weed control at 31 g/ha (in assay [2]; in the assay with kochia (Bassia scoparia); in assay [5]) were 100%, 60% and 40%, respectively. The pest or weed control at 125 g/ha in assay [2] amounted to 100%; in the assay on kochia (Bassia scoparia), 80%; in assay [5], 100%. Moreover, the pest or weed control at 250 g/ha in assay [3] was determined as 95%. In addition, the “Plant response rating, Blackgrass” value worked out at 30 in assay [4] (31 g ai/ha) and 70 in assay [4] (125 g ai/ha). Moreover, the “Plant response rating, Corn” value in the assay on corn (Zea mays) (31 g ai/ha) stood at 0; in the assay on corn (Zea mays) (125 g ai/ha), 10.
